Laboratory results as given in patent US20260159512A1, “BCAT2 INHIBITORS” (AGIOS PHARMACEUTICALS, INC., priority 2021, published 2026).

What was measured:
BCAT2 [1] = molecular target: T1, BCAT2 (Homo sapiens, UniProt O15382); assay: BCAT2 in vitro cell inhibition using engineered A549 cells (KMV cell assay, 13C6-KMV by LC-MS/MS); assay type: cell-based; parameters: The result was an engineered A549 cell line that expressed endogenous BCAT2; endogenous in cells; host or cells: A549 cells with MUT and BCAT1 knocked out by CRISPR/CAS9; key to BCAT2 Cell Inhibition: A: less than or equal to 0.100 μM; B: greater than 0.100 and less than or equal to 0.500 μM; C: greater than 0.500 and less than or equal to 1.000 μM; d: greater than 1.000 μM; E: no fit; details: average where tested multiple times
T1 sequence (O15382 28-392): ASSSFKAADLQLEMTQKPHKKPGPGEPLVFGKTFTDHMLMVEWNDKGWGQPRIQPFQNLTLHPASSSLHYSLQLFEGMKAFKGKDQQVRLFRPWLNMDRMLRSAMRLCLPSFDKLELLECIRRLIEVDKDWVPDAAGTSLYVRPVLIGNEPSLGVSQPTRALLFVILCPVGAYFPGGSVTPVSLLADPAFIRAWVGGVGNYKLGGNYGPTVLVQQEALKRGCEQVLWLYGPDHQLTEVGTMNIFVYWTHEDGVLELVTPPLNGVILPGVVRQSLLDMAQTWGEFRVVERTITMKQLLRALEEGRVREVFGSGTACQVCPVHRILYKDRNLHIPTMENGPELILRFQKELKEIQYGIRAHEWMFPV

BCAT2 [2] = molecular target: T1, BCAT2; assay: BCAT2 in vitro enzyme inhibition assay (resazurin/diaphorase-coupled fluorescence); assay type: biochemical; details: average where tested multiple times
In short: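 Coupled fluorescence readout: glutamate formed from L-leucine/α-ketoglutarate transamination drives GDH/NAD/diaphorase reduction of resazurin (Ex 540/Em 590). Human BCAT2 was first exposed 1 h at room temperature to compound, top final 100 μM in 3-fold, 10-point series; substrate reaction ran 1 h before SDS quench, in technical duplicate with DMSO max and enzyme-free min controls.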

SMILES | IC50 (BCAT2 [1]) | IC50 (BCAT2 [2]) | BCAT2 Cell Inhibition (BCAT2 [1])
CO[C@@H]1C[C@@H](NC(=O)c2ncc(Cl)s2)C[C@@H](n2c(-c3ccccc3C#N)nc3cnc(-c4nc[nH]n4)cc32)C1 (stereo in doubt) [Example 446, 5-chloro-N-((1S,3R,5R)-3-(2-(2-cyanophenyl)-6-(1H-1,2,4-triazol-3-yl)-1H-imidazo[4,5-c]pyridin-1-yl)-5-methoxycyclohexyl)thiazole-2-carboxamide] | ≤ 100 nM | ≤ 100 nM | –
Cn1ccc(-c2nc3cnc(-n4ccnn4)cc3n2[C@@H]2CCC[C@H](NC(=O)c3ncc(C(F)F)s3)C2)n1 [Example 42, 5-(difluoromethyl)-N-((1S,3R)-3-(2-(1-methyl-1H-pyrazol-3-yl)-6-(1H-1,2,3-triazol-1-yl)-1H-imidazo[4,5-c]pyridin-1-yl)cyclohexyl)thiazole-2-carboxamide] | – | > 1000 nM | E
O=C(N[C@H]1CCC[C@@H](n2c(CN3CCCCC3)nc3cnc(-n4nccn4)cc32)C1)c1ncc(C(F)F)s1 [Example 95, 5-(difluoromethyl)-N-((1S,3R)-3-(2-(piperidin-1-ylmethyl)-6-(2H-1,2,3-triazol-2-yl)-1H-imidazo[4,5-c]pyridin-1-yl)cyclohexyl)thiazole-2-carboxamide] | – | > 1000 nM | E
CC(C)Oc1nc2cnc(-n3ccnn3)cc2n1[C@@H]1CCC[C@H](NC(=O)c2ncc(C(F)F)s2)C1 [Example 97, 5-(difluoromethyl)-N-((1S,3R)-3-(2-isopropoxy-6-(1H-1,2,3-triazol-1-yl)-1H-imidazo[4,5-c]pyridin-1-yl)cyclohexyl)thiazole-2-carboxamide] | – | > 1000 nM | E
O=C(O)CCc1ccccc1-c1nc2cnc(-n3nccn3)cc2n1[C@@H]1CCC[C@H](NC(=O)c2ncc(C(F)F)s2)C1 [Example 100, 3-(2-(1-((1R,3S)-3-(5-(difluoromethyl)thiazole-2-carboxamido)cyclohexyl)-6-(2H-1,2,3-triazol-2-yl)-1H-imidazo[4,5-c]pyridin-2-yl)phenyl)propanoic acid] | – | 500 to 1000 nM | E
O=C(N[C@@H]1CCC[C@H](n2c(-c3ccccc3F)nc3cnc(-n4nccn4)cc32)[C@H]1O)c1ncc(Cl)s1 [Example 114, 5-chloro-N-((1R,2S,3S)-3-(2-(2-fluorophenyl)-6-(2H-1,2,3-triazol-2-yl)-1H-imidazo[4,5-c]pyridin-1-yl)-2-hydroxycyclohexyl)thiazole-2-carboxamide] | 100 to 500 nM | 100 to 500 nM | –
O=C(NN1CCCC(n2c(-c3ccccn3)nc3cnc(-n4nccn4)cc32)C1)c1ncc(C(F)F)s1 (stereo not drawn) [Example 137, 5-(difluoromethyl)-N-(3-(2-(pyridin-2-yl)-6-(2H-1,2,3-triazol-2-yl)-1H-imidazo[4,5-c]pyridin-1-yl)piperidin-1-yl)thiazole-2-carboxamide] | – | > 1000 nM | E
CC(C)(Cc1nc2cnc(-n3nccn3)cc2n1[C@@H]1CCC[C@H](NC(=O)c2ccc(Cl)s2)C1)C(=O)O [Example 190, 3-(1-((1R,3S)-3-(5-chlorothiophene-2-carboxamido)cyclohexyl)-6-(2H-1,2,3-triazol-2-yl)-1H-imidazo[4,5-c]pyridin-2-yl)-2,2-dimethylpropanoic acid] | – | > 1000 nM | E
O=C(N[C@H]1CCC[C@@H](n2c(Oc3cc[nH]n3)nc3cnc(-c4nc[nH]n4)cc32)C1)c1ncc(Cl)s1 [Example 191, N-((1S,3R)-3-(2-((1H-pyrazol-3-yl)oxy)-6-(1H-1,2,4-triazol-3-yl)-1H-imidazo[4,5-c]pyridin-1-yl)cyclohexyl)-5-chlorothiazole-2-carboxamide] | – | > 1000 nM | E
CC(C)Cc1nc2cnc(N3CCC[C@H]3C(C)(C)O)cc2n1[C@@H]1CCC[C@H](NC(=O)c2ncc(Cl)s2)C1 [Example 193, 5-chloro-N-((1S,3R)-3-(6-((S)-2-(2-hydroxypropan-2-yl)pyrrolidin-1-yl)-2-isobutyl-1H-imidazo[4,5-c]pyridin-1-yl)cyclohexyl)thiazole-2-carboxamide] | – | > 1000 nM | E
COC[C@H]1CCCN1c1cc2c(cn1)nc(-c1ccccc1F)n2[C@@H]1CCC[C@H](NC(=O)c2ncc(Cl)s2)C1 [Example 198, 5-chloro-N-((1S,3R)-3-(2-(2-fluorophenyl)-6-((R)-2-(methoxymethyl)pyrrolidin-1-yl)-1H-imidazo[4,5-c]pyridin-1-yl)cyclohexyl)thiazole-2-carboxamide] | > 1000 nM | > 1000 nM | –
CC(C)Cc1nc2cnc(-c3ccccc3CO)cc2n1[C@@H]1CCC[C@H](NC(=O)c2ncc(Cl)s2)C1 [Example 205, 5-chloro-N-((1S,3R)-3-(6-(2-(hydroxymethyl)phenyl)-2-isobutyl-1H-imidazo[4,5-c]pyridin-1-yl)cyclohexyl)thiazole-2-carboxamide] | – | > 1000 nM | E
CC(C)Cc1nc2cnc(-c3cccc(F)n3)cc2n1[C@H]1CCC[C@@H](NC(=O)c2ncc(Cl)s2)[C@@H]1O [Example 208, 5-chloro-N-((1R,2S,3S)-3-(6-(6-fluoropyridin-2-yl)-2-isobutyl-1H-imidazo[4,5-c]pyridin-1-yl)-2-hydroxycyclohexyl)thiazole-2-carboxamide] | – | > 1000 nM | E
CC(C)Cc1nc2cnc(-c3ccn(C)n3)cc2n1C1CC(O)CC(NC(=O)c2ncc(Cl)s2)C1 (stereo not drawn) [Example 210, 5-chloro-N-(3-hydroxy-5-(2-isobutyl-6-(1-methyl-1H-pyrazol-3-yl)-1H-imidazo[4,5-c]pyridin-1-yl)cyclohexyl)thiazole-2-carboxamide] | 500 to 1000 nM | ≤ 100 nM | –
CC(C)Cc1nc2cnc(-c3cc(C(F)(F)F)n[nH]3)cc2n1[C@H]1CCC[C@@H](NC(=O)c2ncc(Cl)s2)[C@@H]1O [Example 217, 5-chloro-N-((1R,2S,3S)-2-hydroxy-3-(2-isobutyl-6-(3-(trifluoromethyl)-1H-pyrazol-5-yl)-1H-imidazo[4,5-c]pyridin-1-yl)cyclohexyl)thiazole-2-carboxamide] | – | > 1000 nM | E
CC(C)Cc1nc2cnc(-c3ccn(C(F)F)n3)cc2n1[C@H]1CCC[C@@H](NC(=O)c2ncc(Cl)s2)[C@@H]1O [Example 229, 5-chloro-N-((1R,2S,3S)-3-(6-(1-(difluoromethyl)-1H-pyrazol-3-yl)-2-isobutyl-1H-imidazo[4,5-c]pyridin-1-yl)-2-hydroxycyclohexyl)thiazole-2-carboxamide] | – | 500 to 1000 nM | E
CC(C)Cc1nc2cnc(-n3cc(F)cn3)cc2n1[C@H]1CCC[C@@H](NC(=O)c2ncc(Cl)s2)[C@@H]1O [Example 231, 5-chloro-N-((1R,2S,3S)-3-(6-(4-fluoro-1H-pyrazol-1-yl)-2-isobutyl-1H-imidazo[4,5-c]pyridin-1-yl)-2-hydroxycyclohexyl)thiazole-2-carboxamide] | – | > 1000 nM | E
CC(C)Cc1nc2cnc(-c3ccccn3)cc2n1[C@H]1CCC[C@@H](NC(=O)c2ncc(Cl)s2)[C@@H]1O [Example 236, 5-chloro-N-((1R,2S,3S)-2-hydroxy-3-(2-isobutyl-6-(pyridin-2-yl)-1H-imidazo[4,5-c]pyridin-1-yl)cyclohexyl)thiazole-2-carboxamide] | – | 500 to 1000 nM | E
